Tests used:
[1] = test system: larvae of the army worm (Spodoptera frugiperda); test: Spodoptera frugiperda test (spray treatment); format: in vivo; details: 500 g/ha, sprayed maize leaf disks
Source text: Spodoptera frugiperda Test (Spray Treatment)

[2] = test system: eggs of the cotton bollworm (Heliothis virescens); test: Heliothis virescens egg test (spray treatment); format: in vivo; details: 500 g/ha, sprayed soybean leaves, 100% = none of the larvae hatched
Source text: Heliothis virescens Egg Test (Spray Treatment)

[3] = test system: larvae of the mustard beetle (Phaedon cochleariae); test: Phaedon larvae test (spray treatment); details: sprayed Chinese cabbage leaf disks
Meloidogyne incognita = test: Meloidogyne test (spray treatment); format: in vivo; details: 20 g/ha, nematicidal effect from formation of galls on lettuce roots
Description: Meloidogyne Test (Spray Treatment)
Solvent: 80 parts by weight of acetone
Containers are filled with sand, solution of active compound, Meloidogyne incognita egg/larvae suspension, and lettuce seeds. The lettuce seeds germinate and the plants develop. On the roots, galls are formed.
After the desired time, the nematicidal effect is determined in % from the formation of galls. 100% here means that no galls were found; 0% means that the number of galls on the treated plants corresponds to that in the untreated control.

[4] = test system: larvae of the cabbage moth (Plutella xylostella); test: Plutella test; format: in vivo; details: for Kill rate in % after 7^d: 100 PPM, dipped cabbage leaves; for efficacy (in words): Plutella test
Source text: Solvent: 7 parts by weight of dimethylformamide
Emulsifier: 1 part by weight of alkylaryl polyglycol ether

[5] = test system: greenhouse red spider mite (Tetranychus urticae); test: Tetranychus test (OP-resistant/spray treatment); format: in vivo
Source text: Tetranychus Test (OP-Resistant/Spray Treatment)
Disks of bean leaves (Phaseolus vulgaris) which are infested by all stages of the greenhouse red spider mite (Tetranychus urticae) are sprayed with an active compound preparation in the desired concentration.

| SMILES | Kill rate in % after 7^d [1] [%] | Kill rate in % after 7^d [2] [%] | Kill rate in % after 7^d ([3]; 500 g/ha) [%] | also measured |
| --- | --- | --- | --- | --- |
| O=C1OCC2=C1C(c1cc(F)cc(F)c1)c1cc3c(cc1N2)OCO3 (stereo not shown) [Example 16] | 100 | 97 | – | – |
| CC1(C)CC(=O)C2=C(C1)Nc1cc3c(cc1C2c1cccc(Cl)c1)OCO3 (stereo not shown) [Example 31] | – | 83 | – | – |
| COc1cc(OC)cc(C2(C)C3=C(COC3=O)Nc3cc4c(cc32)OCO4)c1 (stereo not shown) [Example 107] | – | 90 | – | – |
| COc1cc(C2C3=C(COC3=O)Nc3cc4c(cc32)OCO4)cc(O)c1OC (stereo not shown) [Example 130] | – | – | 100 | – |
| CCOc1cccc(C2C3=C(COC3=O)Nc3cc4c(cc32)OCO4)c1 (stereo not shown) [Example 111] | 100 | – | – | – |
| O=C1OCC2=C1C(c1ccc(F)c(Br)c1)c1cc3c(cc1N2)OCO3 (stereo not shown) [Example 129] | 100 | 100 | – | – |
| COc1ccc2c(c1)C(c1cc(OC)c(OC)c(OC)c1)C1=C(COC1=O)N2 (stereo not shown) [Example 8, 7-methoxy-9-(3,4,5-trimethoxyphenyl)-4,9-dihydro-3H-furo[3,4-b]quinolin-1-one] | – | – | 100 | – |
| COc1cc(OC)cc(C2C3=C(COC3=O)Nc3cc(OC)cc(OC)c32)c1 (stereo not shown) [Example 100] | 100 | – | – | Kill rate in % after 7^d ([3]; 100 g/ha): 83% |
| N#CCOc1cccc(C2C3=C(COC3=O)Nc3cc4c(cc32)OCO4)c1 (stereo not shown) [Example 136] | 100 | – | 83 | – |
| COc1cc(OC)cc(C2C3=C(COC3=O)Nc3cc(SC)ccc32)c1 (stereo not shown) [Example 84] | 100 | – | – | – |
| O=C1OCC2=C1C(c1cccc(OCCO)c1)c1cc3c(cc1N2)OCO3 (stereo not shown) [Example 158] | 100 | – | – | – |
| O=C1OCC2=C1C(c1cc(Br)cc(Br)c1)c1cc3c(cc1N2)OCO3 (stereo not shown) [Example 123] | 100 | 95 | – | – |
| Cc1cccc(C2C3=C(COC3=O)Nc3cc4c(cc32)OCO4)c1 (stereo not shown) [Example 19] | 100 | – | – | – |
| CCN1CC2=C(C1=O)C(c1ccc(OC)cc1)c1cc3c(cc1N2)OCO3 (stereo not shown) | – | – | – | Kill rate in % after 14^d (Meloidogyne incognita): 70% |
| COc1cc(OC)cc(C2C3=C(CCC3=O)Nc3cc4c(cc32)OCO4)c1 (stereo not shown) [Example 56] | 100 | 80 | 100 | – |
| COc1cc2c(c(C3C4=C(COC4=O)Nc4cc5c(cc43)OCO5)c1)OCO2 (stereo not shown) [Example 155] | – | – | 100 | – |
| O=C1OCC2=C1C(c1ccccc1)c1cc3c(cc1N2)OCO3 (stereo not shown) [Example 17] | 100 | – | – | – |
| COc1ccc(C2C3=C(CN(c4ccccc4)C3=O)Nc3cc4c(cc32)OCO4)cc1 (stereo not shown) | – | – | – | Kill rate in % after 14^d (Meloidogyne incognita): 70% |
| O=C1OCC2=C1C(c1cc(Cl)cc(Cl)c1)c1cc3c(cc1N2)OCO3 (stereo not shown) [Example 12] | – | 100 | 100 | – |
| COc1cc(C2C3=C(COC3=O)Nc3cc4c(cc32)OCO4)cc(Br)c1OC (stereo not shown) [Example 114] | – | – | 83 | – |

| SMILES | Kill rate in % after 7^d [1] [%] | Kill rate in % after 7^d [2] [%] | Kill rate in % after 7^d ([3]; 500 g/ha) [%] | also measured |
| --- | --- | --- | --- | --- |
| CN1OC(C)(C)C2=C(C1=O)C(c1cccc(Cl)c1)c1cc3c(cc1N2)OCO3 (stereo not shown) [Example 36] | – | 80 | – | – |
| COc1ccc2c(c1)NC1=C(C(=O)OC1)C2c1cc(OC)c(OC)c(OC)c1 (stereo not shown) [Example 9] | 100 | – | – | Kill rate in % after 7^d [4]: 90%; efficacy (in words) [4]: high efficacy |
| COc1ccc(C2C3=C(COC3=O)Nc3cc4c(cc32)OCO4)cn1 (stereo not shown) [Example 142] | 100 | – | 100 | – |
| COc1c(Cl)cc(C2C3=C(COC3=O)Nc3cc4c(cc32)OCO4)cc1Cl (stereo not shown) [Example 128] | 83 | – | 100 | – |
| COc1cc(OC)cc(C2C3=C(COC3=O)Nc3cc(OC)c(C)cc32)c1 (stereo not shown) [Example 93] | 100 | – | 100 | – |
| COc1cc2c(cc1OC)C(c1ccc3c(c1)OCO3)C1=C(COC1=O)N2 (stereo not shown) [Example 72] | – | – | – | Kill rate in % after 14^d (Meloidogyne incognita): 100% |
| COc1cc(C2C3=C(COC3=O)Nc3cc4c(cc32)OC(F)(F)O4)cc(OC)c1OC (stereo not shown) [Example 70] | – | – | 100 | – |
| CCOc1cccc(C2C3=C(COC3=O)Nc3cc(OCC)ccc32)c1 (stereo not shown) [Example 103] | 100 | – | 100 | – |
| O=C1OCC2=C1C(c1ccc(F)c(Cl)c1)c1cc3c(cc1N2)OCO3 (stereo not shown) [Example 140] | 100 | – | – | – |
| COc1cc(OC)cc(C2C3=C(COC3=O)Nc3cc(OC)c(OC)cc32)c1 (stereo not shown) [Example 73] | 83 | – | 83 | – |
| O=C1OCC2=C1C(c1cc(F)c(F)c(F)c1)c1cc3c(cc1N2)OCO3 (stereo not shown) [Example 153] | 100 | – | – | – |
| COc1cc2c(cc1OC)C(c1ccc3c(c1)OC(F)(F)O3)C1=C(COC1=O)N2 (stereo not shown) [Example 68] | – | – | – | Kill rate in % after 14^d (Meloidogyne incognita): 80% |
| COc1cc(OC)cc(C2C3=C(COC3=O)Nc3ccc(OC)cc32)c1 (stereo not shown) [Example 86] | 100 | – | 100 | – |
| COc1cc(OC)cc(C2C3=C(COC3=O)Nc3c2ccc(OC)c3OC)c1 (stereo not shown) [Example 90] | 100 | – | 100 | – |
| COc1cc(OC)cc(C2C3=C(COC3=O)Nc3cc4c(cc32)OCCCO4)c1 (stereo not shown) [Example 75] | 100 | – | 100 | – |
| COc1cccc(C2C3=C(COC3=O)Nc3cc4c(cc32)OCO4)c1 (stereo not shown) [Example 1, 6,7-(methylenedioxy)-9-(3-methoxyphenyl)-4,9-dihydro-3H-furo[3,4-b]quinolin-1-one] | 100 | – | – | – |
| COc1cc(OC)cc(C2C3=C(COC3=O)Nc3ccc(OC)cc32)c1 (stereo not shown) [Example 162] | – | 100 | – | – |
| Clc1cccc(C2C3=C(CCC3)Nc3cc4c(cc32)OCO4)c1 (stereo not shown) [Example 30] | – | – | – | Kill rate in % after 7^d ([5]; 500 g/ha, after 7 d, sprayed bean leaf disks, all stages): 70%; efficacy (in words) ([5]; Tetranychus test): high efficacy |
| CCOc1cc2c(cc1C)C(c1cc(OC)cc(OC)c1)C1=C(COC1=O)N2 (stereo not shown) [Example 99] | – | – | 83 | – |
| COc1cc(C2C3=C(COC3=O)Nc3cc4c(cc32)OCO4)ccc1F (stereo not shown) [Example 148] | 100 | – | – | – |

| SMILES | Kill rate in % after 7^d [1] [%] | Kill rate in % after 7^d [2] [%] | Kill rate in % after 7^d ([3]; 500 g/ha) [%] | also measured |
| --- | --- | --- | --- | --- |
| COc1cc(C2C3=C(COC3=O)Nc3cc4c(cc32)OCO4)cc2c1OCO2 (stereo not shown) [Example 133] | 83 | 95 | 100 | – |
| O=C1OCC2=C1C(c1cccc(F)c1)c1cc3c(cc1N2)OCO3 (stereo not shown) [Example 20] | – | 96 | 83 | – |
| O=C1OCC2=C1C(c1cccc(Cl)c1)c1cc3c(cc1N2)OCO3 (stereo not shown) [Example 6] | 100 | 98 | – | Kill rate in % after 7^d [4]: 100%; efficacy (in words) [4]: high efficacy |
| COc1cc(OC)cc(C2C3=C(COC3=O)Nc3cc(OC)ccc32)c1 (stereo not shown) [Example 161] | 100 | 100 | 100 | – |
| COc1cc(OC)c(C2C3=C(COC3=O)Nc3cc4c(cc32)OCO4)cn1 (stereo not shown) [Example 150] | – | 100 | – | – |
| O=C1OCC2=C1C(c1cncc(Br)c1)c1cc3c(cc1N2)OCO3 (stereo not shown) [Example 116] | 100 | – | – | – |
| O=C1OCC2=C1C(c1cc(Br)c3c(c1)OCO3)c1cc3c(cc1N2)OCO3 (stereo not shown) [Example 145] | 100 | – | 83 | – |
| CC1CC2=C(C(=O)O1)C(c1cccc(Cl)c1)c1cc3c(cc1N2)OCO3 (stereo not shown) [Example 35] | 100 | – | 100 | – |
| O=C1OCC2=C1C(c1cccc(OC(F)(F)C(F)F)c1)c1cc3c(cc1N2)OCO3 (stereo not shown) [Example 157] | 100 | – | 100 | – |
| COc1cc(C2C3=C(COC3=O)Nc3cc4c(cc32)OCO4)ccc1Cl (stereo not shown) [Example 139] | 100 | – | 83 | – |
| O=C1OCC2=C1C(c1cccc(Br)c1)c1cc3c(cc1N2)OCO3 (stereo not shown) [Example 18] | – | 98 | 100 | – |
| COc1cc(OC)cc(C2C3=C(COC3=O)Nc3cc4c(cc32)OCCO4)c1 (stereo not shown) [Example 74] | 100 | – | – | – |
| Cc1cc(C)cc(C2C3=C(COC3=O)Nc3cc4c(cc32)OCO4)c1 (stereo not shown) [Example 23] | 100 | 98 | – | – |
| COc1cc(OC)cc(C2C3=C(Nc4cc5c(cc42)OCO5)C(C)OC3=O)c1 (stereo not shown) [Example 45] | 100 | 98 | 100 | – |
| O=C1OCC2=C1C(c1cc(C(F)(F)F)cc(Cl)c1F)c1cc3c(cc1N2)OCO3 (stereo not shown) [Example 113] | – | 95 | 100 | – |
| COc1cc(C2C3=C(COC3=O)N(C)c3cc4c(cc32)OCO4)cc(OC)c1OC (stereo not shown) [Example 69] | – | – | 100 | – |
| COc1cc(C2C3=C(COC3=O)Nc3cc4c(cc32)OCO4)cc(OC)c1OC (stereo not shown) [Example 61] | – | – | 100 | – |
| O=C1OCC2=C1C(c1cccc(OCc3ccc(Cl)cc3)c1)c1cc3c(cc1N2)OCO3 (stereo not shown) [Example 149] | – | 85 | – | – |

Reference: patent publication US20080113994A1, “Annelated Quinoline Derivatives As Pesticide” (priority 2004, published 2008)
